According to PubChem BioAssay (NCI):
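Briefly, cells in 96-well plates were exposed to five compound concentrations for 48 h, and endpoints were estimated by linear interpolation. Abbreviation: GI50, concentration required for 50% inhibition of growth. TGI denotes the concentration required for complete inhibition of growth.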

Columns and labels:
Test in all cases: NCI tumour cell line growth inhibition, 48 h
UACC-257 melanoma = tested on: UACC-257 melanoma
NCI-H23 lung = tested on: NCI-H23 lung
MALME-3M melanoma = tested on: MALME-3M melanoma
HT29 colon = tested on: HT29 colon
MDA-MB-231 breast = tested on: MDA-MB-231 breast
EKVX NSCLC = tested on: EKVX NSCLC
MCF7 breast = tested on: MCF7 breast
SNB-19 CNS = tested on: SNB-19 CNS
A498 renal = tested on: A498 renal
SF-268 CNS = tested on: SF-268 CNS
SK-MEL-28 melanoma = tested on: SK-MEL-28 melanoma
M14 melanoma = tested on: M14 melanoma
UACC-62 melanoma = tested on: UACC-62 melanoma
HS 578T breast = tested on: HS 578T breast
KM12 colon = tested on: KM12 colon
HCT-15 colon = tested on: HCT-15 colon
COLO 205 colon = tested on: COLO 205 colon
SN12C renal = tested on: SN12C renal
SF-539 CNS = tested on: SF-539 CNS
SNB-75 CNS = tested on: SNB-75 CNS
A549 NSCLC = tested on: A549 NSCLC
NCI-H460 lung = tested on: NCI-H460 lung
PC-3 prostate = tested on: PC-3 prostate
SK-OV-3 ovarian = tested on: SK-OV-3 ovarian
786-0 renal = tested on: 786-0 renal
NCI-H226 lung = tested on: NCI-H226 lung
RPMI-8226 leukemia = tested on: RPMI-8226 leukemia
MDA-MB-468 breast = tested on: MDA-MB-468 breast
SW-620 colon = tested on: SW-620 colon
OVCAR-4 ovarian = tested on: OVCAR-4 ovarian
HCT-116 colon = tested on: HCT-116 colon
UO-31 renal = tested on: UO-31 renal
MOLT-4 leukemia = tested on: MOLT-4 leukemia
SF-295 CNS = tested on: SF-295 CNS
HCC-2998 colon = tested on: HCC-2998 colon
OVCAR-8 ovarian = tested on: OVCAR-8 ovarian
CAKI-1 renal = tested on: CAKI-1 renal
T-47D breast = tested on: T-47D breast
NCI-H522 lung = tested on: NCI-H522 lung
OVCAR-3 ovarian = tested on: OVCAR-3 ovarian
K-562 leukemia = tested on: K-562 leukemia
OVCAR-5 ovarian = tested on: OVCAR-5 ovarian
U251 CNS = tested on: U251 CNS
IGROV1 ovarian = tested on: IGROV1 ovarian
RXF 393 renal = tested on: RXF 393 renal
MDA-MB-435 = tested on: MDA-MB-435
SK-MEL-5 melanoma = tested on: SK-MEL-5 melanoma
HL-60(TB) leukemia = tested on: HL-60(TB) leukemia
TK-10 renal = tested on: TK-10 renal
ACHN renal = tested on: ACHN renal
LOX IMVI melanoma = tested on: LOX IMVI melanoma
HOP-92 NSCLC = tested on: HOP-92 NSCLC
HOP-62 NSCLC = tested on: HOP-62 NSCLC
DU-145 prostate = tested on: DU-145 prostate
SK-MEL-2 melanoma = tested on: SK-MEL-2 melanoma
BT-549 breast = tested on: BT-549 breast
NCI/ADR-RES ovarian = tested on: NCI/ADR-RES ovarian
SR leukemia = tested on: SR leukemia
CCRF-CEM leukemia = tested on: CCRF-CEM leukemia

Structure (SMILES): C#C[C@]1(O)CC[C@H]2[C@@H]3CC=C4c5sc(-c6ccc([N+](=O)[O-])cc6)nc5CC[C@]4(C)[C@H]3CC[C@@]21C
- GI50 (UACC-257 melanoma): 12.1 µM
- TGI (UACC-257 melanoma): 25 µM
- GI50 (NCI-H23 lung): 13.8 µM
- TGI (NCI-H23 lung): 29.9 µM
- GI50 (MALME-3M melanoma): 3.59 µM
- TGI (MALME-3M melanoma): 16.5 µM
- GI50 (HT29 colon): 11.4 µM
- TGI (HT29 colon): 35.2 µM
- GI50 (MDA-MB-231 breast): 12.3 µM
- TGI (MDA-MB-231 breast): 27.4 µM
- GI50 (EKVX NSCLC): 10.1 µM
- TGI (EKVX NSCLC): 23.8 µM
- GI50 (MCF7 breast): 3.07 µM
- TGI (MCF7 breast): 16.6 µM
- GI50 (SNB-19 CNS): 13.8 µM
- TGI (SNB-19 CNS): 29.8 µM
- GI50 (A498 renal): 4.04 µM
- TGI (A498 renal): 13.8 µM
- GI50 (SF-268 CNS): 12.8 µM
- TGI (SF-268 CNS): 43.6 µM
- GI50 (SK-MEL-28 melanoma): 7.33 µM
- TGI (SK-MEL-28 melanoma): 20.5 µM
- GI50 (M14 melanoma): 2.74 µM
- TGI (M14 melanoma): 12.2 µM
- GI50 (UACC-62 melanoma): 14.3 µM
- TGI (UACC-62 melanoma): 27.4 µM
- GI50 (HS 578T breast): 2.04 µM
- TGI (HS 578T breast): 10.3 µM
- GI50 (KM12 colon): 17 µM
- TGI (KM12 colon): 38.4 µM
- GI50 (HCT-15 colon): 3.99 µM
- TGI (HCT-15 colon): 23.9 µM
- GI50 (COLO 205 colon): 14.9 µM
- TGI (COLO 205 colon): 33.8 µM
- GI50 (SN12C renal): 13 µM
- TGI (SN12C renal): 26.3 µM
- GI50 (SF-539 CNS): 0.895 µM
- TGI (SF-539 CNS): 3.61 µM
- GI50 (SNB-75 CNS): 2.93 µM
- TGI (SNB-75 CNS): 18.6 µM
- GI50 (A549 NSCLC): 12.5 µM
- TGI (A549 NSCLC): 36.2 µM
- GI50 (NCI-H460 lung): 6.19 µM
- TGI (NCI-H460 lung): 25.8 µM
- GI50 (PC-3 prostate): 7.18 µM
- TGI (PC-3 prostate): 95.7 µM
- GI50 (SK-OV-3 ovarian): 12.3 µM
- TGI (SK-OV-3 ovarian): 30.6 µM
- GI50 (786-0 renal): 1.84 µM
- TGI (786-0 renal): 13.4 µM
- GI50 (NCI-H226 lung): 18.1 µM
- TGI (NCI-H226 lung): 50.2 µM
- GI50 (RPMI-8226 leukemia): 0.404 µM
- TGI (RPMI-8226 leukemia): 6.27 µM
- GI50 (MDA-MB-468 breast): 12.4 µM
- TGI (MDA-MB-468 breast): 28.9 µM
- GI50 (SW-620 colon): 8.39 µM
- TGI (SW-620 colon): 27.2 µM
- GI50 (OVCAR-4 ovarian): 15.4 µM
- TGI (OVCAR-4 ovarian): 43.7 µM
- GI50 (HCT-116 colon): 10.2 µM
- TGI (HCT-116 colon): 23.3 µM
- GI50 (UO-31 renal): 5.02 µM
- TGI (UO-31 renal): 16.2 µM
- GI50 (MOLT-4 leukemia): 2.61 µM
- TGI (MOLT-4 leukemia): 33.1 µM
- GI50 (SF-295 CNS): 0.41 µM
- TGI (SF-295 CNS): 1.8 µM
- GI50 (HCC-2998 colon): 7.21 µM
- TGI (HCC-2998 colon): 23.1 µM
- GI50 (OVCAR-8 ovarian): 15.3 µM
- TGI (OVCAR-8 ovarian): 38.5 µM
- GI50 (CAKI-1 renal): 10.8 µM
- TGI (CAKI-1 renal): 22.7 µM
- GI50 (T-47D breast): 7.23 µM
- TGI (T-47D breast): 25.2 µM
- GI50 (NCI-H522 lung): 15.1 µM
- TGI (NCI-H522 lung): 38 µM
- GI50 (OVCAR-3 ovarian): 14.9 µM
- TGI (OVCAR-3 ovarian): 31.7 µM
- GI50 (K-562 leukemia): 3.26 µM
- TGI (K-562 leukemia): > 100 µM
- GI50 (OVCAR-5 ovarian): 12 µM
- TGI (OVCAR-5 ovarian): 24.3 µM
- GI50 (U251 CNS): 2.99 µM
- TGI (U251 CNS): 18.8 µM
- GI50 (IGROV1 ovarian): 10.3 µM
- TGI (IGROV1 ovarian): 30.9 µM
- GI50 (RXF 393 renal): 0.625 µM
- TGI (RXF 393 renal): 3.18 µM
- GI50 (MDA-MB-435): 11.9 µM
- TGI (MDA-MB-435): 25.9 µM
- GI50 (SK-MEL-5 melanoma): 5.45 µM
- TGI (SK-MEL-5 melanoma): 17.9 µM
- GI50 (HL-60(TB) leukemia): 13.5 µM
- TGI (HL-60(TB) leukemia): 42.6 µM
- GI50 (TK-10 renal): 13.8 µM
- TGI (TK-10 renal): 26.7 µM
- GI50 (ACHN renal): 12.2 µM
- TGI (ACHN renal): 24.6 µM
- GI50 (LOX IMVI melanoma): 6.89 µM
- TGI (LOX IMVI melanoma): 33.1 µM
- GI50 (HOP-92 NSCLC): 22.3 µM
- TGI (HOP-92 NSCLC): 47.4 µM
- GI50 (HOP-62 NSCLC): 11.5 µM
- TGI (HOP-62 NSCLC): 30 µM
- GI50 (DU-145 prostate): 12.8 µM
- TGI (DU-145 prostate): 30.3 µM
- GI50 (SK-MEL-2 melanoma): 7.18 µM
- TGI (SK-MEL-2 melanoma): 21.3 µM
- GI50 (BT-549 breast): 3.76 µM
- TGI (BT-549 breast): 16.7 µM
- GI50 (NCI/ADR-RES ovarian): 16.4 µM
- TGI (NCI/ADR-RES ovarian): 67.9 µM
- GI50 (SR leukemia): 2.49 µM
- TGI (SR leukemia): > 100 µM
- GI50 (CCRF-CEM leukemia): 4.36 µM
- TGI (CCRF-CEM leukemia): 31.9 µM
